Series [1] deals with Abeta 1-x peptide. Briefly: In vivo inhibition of beta-secretase (brain Abeta 1-x lowering). Set-up: species or system mice. The conditions noted are these: for Abeta 1-x peptide levels reduced, brain cortex / Abeta 1-x peptide levels reduced, brain hippocampus: three hours after administration, compared to vehicle-treated mice. From the text:
Several animal models, including mouse, guinea pig, dog, and monkey, may be used to screen for inhibition of beta-secretase activity in vivo following compound treatment. Animals used in this invention can be wild type, transgenic, or gene knockout animals. For example, the PDAPP mouse model, prepared as described in Games et al., Nature 373, 523-527 (1995), and other non-transgenic or gene knockout animals are useful to analyze in vivo inhibition of Abeta and sAPPbeta production in the presence of inhibitory compounds. Generally, 2 to 12 month old PDAPP mice, gene knockout mice or non-transgenic animals are administered compound formulated in vehicles, such as corn oil, cyclodextran, phosphate buffers, […]®, or other suitable vehicles. One to twenty-four hours following the administration of compound, animals are sacrificed, and brains as well as cerebrospinal fluid and plasma are removed for analysis of Abetas, C99, and sAPP fragments. (See May, et al., Journal of Neuroscience, 31, 16507-16516 (2011)). For standard in vivo pharmacology studies, animals are dosed with various concentrations of compound and compared to a vehicle-treated control group dosed at the same time. For some time course studies, brain tissue, plasma, or cerebrospinal fluid is obtained from selected animals, beginning at time 0 to establish a baseline. Compound or appropriate vehicle is administered to other groups and sacrificed at various times after dosing. Brain tissue, plasma, or cerebrospinal fluid is obtained from selected animals and analyzed for the presence of APP cleavage products, including Abeta peptides, sAPPbeta, and other APP fragments, for example, by specific sandwich ELISA assays. At the end of the test period, animals are sacrificed and brain tissues, plasma, or cerebrospinal fluid are analyzed for the presence of Abeta peptides, C99, and sAPPbeta, as appropriate. Brain tissues of APP transgenic animals may also be analyzed for the amount of beta-amyloid plaques following compound treatment. “Abeta 1-x peptide” as used herein refers to the sum of Abeta species that begin with residue 1 and ending with a C-terminus greater than residue 28. This detects the majority of Abeta species and is often called “total Abeta”.

Series [2] relates to Abeta released by primary cortical neurons from PDAPP embryos. Briefly: PDAPP primary neuronal assay (Abeta ELISA). The format is cell-based. Particulars: Mus musculus, Primary cortical neuron; 24 hours incubation; Abeta 1-42; Mean ± SEM; read-out: PDAPP Neuron A-beta (1-42) ELISA IC50. A general note: In an ELISA, binding on a coated surface is turned into a signal by an enzyme label.

Series [3] can be described thus: Solvent retained in the crystal. The format is physicochemical.
The nature of series [4]: Solid state physical stability versus relative humidity. The conditions noted are these: room temperature. The format is physicochemical. The source says: Such physical instability is undesirable, particularly for a pharmaceutical drug substance or drug product, both of which are subject to regulatory controls regarding the solid state forms. […] As such, the tosylate salt of N-{3-[(4aR,7aS)-2-amino-6-(5-fluoropyrimidin-2-yl)-4a,5,6,7-tetrahydropyrrolo[3,4-d][1,3]thiazin-7a(4H)-yl]-4-fluoro-phenyl}-5-methoxypyrazine-2-carboxamide essentially avoids the humidity dependent phase transformations associated with the corresponding crystalline free base forms. […] The increased likelihood of the free base to undergo phase transitions during long term storage can lead to variability in properties, such as solubility or dissolution rate, which may compromise the performance of the drug product. It also poses the additional risk of collapse of the crystal structure(s) to an amorphous form or accumulation of defects and disorder, which could lead to chemical instability and reduced shelf-life of the drug product.

As a reminder, the IC50 is the concentration that gives 50% inhibition.

For `COc1cnc(C(=O)Nc2ccc(F)c([C@]34CN(c5ncc(F)cn5)C[C@H]3CSC(N)=N4)c2)cn1` [N-[3-[(4aR,7aS)-2-amino-6-(5-fluoropyrimidin-2-yl)-4,4a,5,7-tetrahydropyrrolo[3,4-d][1,3]thiazin-7a-yl]-4-fluoro-phenyl]-5-methoxy-pyrazine-2-carboxamide], in series [1], the CNS penetration entry was “demonstrate CNS penetration”.

As to `COc1cnc(C(=O)Nc2ccc(F)c([C@]34CN(c5ncc(F)cn5)C[C@H]3CSC(N)=N4)c2)cn1.Cl` [Preparation 46, N-[3-[(4aR,7aS)-2-Amino-6-(5-fluoropyrimidin-2-yl)-4,4a,5,7-tetrahydropyrrolo[3,4-d][1,3]thiazin-7a-yl]-4-fluoro-phenyl]-5-methoxy-pyrazine-2-carboxamide hydrochloride], in series [2], the IC50 amounted to 0.228 nM. Further, the “Abeta 1-x peptide levels reduced, brain cortex” value in series [1] (0.3 mg/kg oral dose) is recorded as “approximately 28%”; in series [1] (1 mg/kg oral dose), around 42%; in series [1] (3 mg/kg oral dose) it was around 64%. Also, the “Abeta 1-x peptide levels reduced, brain hippocampus” value in series [1] (0.3 mg/kg oral dose) was “approximately 31%”; in series [1] (1 mg/kg oral dose) it was around 39%; in series [1] (3 mg/kg oral dose), around 61%. In addition, in series [3], the “amount of solvent retained in the crystal” value was “about 7.7%”.

Take `COc1cnc(C(=O)Nc2ccc(F)c([C@]34CN(c5ncc(F)cn5)C[C@@H]3CN=C(N)S4)c2)cn1.O` [Crystalline Form 2, Crystalline Form 2 N-[3-[(4aR,7aS)-2-Amino-6-(5-fluoropyrimidin-2-yl)-4,4a,5,7-tetrahydropyrrolo[3,4-d][1,3]thiazin-7a-yl]-4-fluoro-phenyl]-5-methoxy-pyrazine-2-carboxamide (Hydrated)]: the entries for the “relative humidity at which the crystal form is present / stable” value in series [4] and in series [4] (listed as crystalline form 2) were “greater than 15 % relative humidity” and “above 15 % relative humidity”, respectively.

The record behind these values is patent US10080758B2, “Tosylate salt of N-[3-[(4aR,7aS)-2-amino-6-(5-fluoropyrimidin-2-yl)-4,4a,5,7-tetrahydropyrrolo[3,4-d][1,3]thiazin-7a-yl]-4-fluoro-phenyl]-5-methoxy-pyrazine-2-carboxamide” (Eli Lilly and Company, priority 2015, dated 2018).
